Reference: ChEMBL document CHEMBL1148925, “Chaetoglobosins Q, R, and T, three further new metabolites from Chaetomium globosum” (J Nat Prod, 2004)
In brackets after ≈: the same amount, converted by molar mass.

Tests used:
Amorphotheca resinae = assay: Antifungal activity against Cladosporium resinae at 15 ug/disk; format: functional; settings: read-out: IZ
Bacillus subtilis = assay: Antibacterial activity against Bacillus subtilis at 15 ug/disk; format: functional; settings: read-out: IZ
HeLa = assay: Cytotoxicity against human HeLa cells; format: functional, cell-based
P388 = assay: Cytotoxicity against mouse P388 cells; format: functional, cell-based
[1] = tested on: Trichophyton mentagrophytes; assay: Antifungal activity against Trichophyton mentagrophytes at 30 ug/disk; format: functional; settings: read-out: IZ

| Structure (SMILES) | zone of inhibition at 15 µg/disc (Amorphotheca resinae) [mm] | zone of inhibition at 15 µg/disc (Bacillus subtilis) [mm] | IC50 (HeLa) [µg/mL] | IC50 (P388) [µg/mL] | zone of inhibition at 30 µg/disc [1] [mm] |
| --- | --- | --- | --- | --- | --- |
| C/C1=C\[C@@H](C)C/C=C/[C@H]2[C@@H]3O[C@]3(C)[C@@H](C)[C@H]3[C@H](Cc4c[nH]c5ccccc45)NC(=O)[C@]32C(=O)/C=C/C(=O)[C@@H]1O [CHAETOGLOBOSIN A] | 5 | 3 | 3.2 (≈ 6.05 µM) | 1.94 (≈ 3.67 µM) | – |
| C/C1=C\[C@@H](C)C/C=C/[C@H]2[C@@H]3O[C@]3(C)[C@@H](C)[C@H]3[C@H](Cc4c[nH]c5ccccc45)NC(=O)[C@]32C(=O)CCC(=O)C1=O [CHAETOGLOBOSIN C] | – | – | 3.2 (≈ 6.05 µM) | – | – |
| CC1=C(C)[C@H]2[C@H](Cc3c[nH]c4ccccc34)NC(=O)[C@]23C(=O)CC[C@H](O)C(=O)/C(C)=C/[C@@H](C)C/C=C/[C@H]3[C@@H]1O [CHAETOGLOBOSIN E] | – | – | 3.2 (≈ 6.03 µM) | – | – |
| C/C1=C\[C@@H](C)C/C=C/[C@H]2[C@@H]3O[C@]3(C)[C@@H](C)[C@H]3[C@H](Cc4c[nH]c5ccccc45)NC(=O)[C@]32C(=O)CC[C@H](O)C1=O [CHAETOGLOBOSIN F] | – | – | 3.2 (≈ 6.03 µM) | – | – |
| C/C1=C\[C@@H](C)C/C=C/[C@H]2[C@H](O)[C@](C)(O)[C@@H](C)[C@H]3[C@H](Cc4c[nH]c5ccccc45)NC(=O)[C@]32C(=O)/C=C/C(=O)[C@@H]1O [CHAETOGLOBOSIN Q] | – | – | – | 2.19 (≈ 4.01 µM) | – |
| CC1=C(C)[C@H]2[C@H](Cc3c[nH]c4ccccc34)NC(=O)[C@]23C(=O)/C=C/C(=O)[C@H](O)/C(C)=C/[C@@H](C)C/C=C/[C@H]3[C@@H]1O [CHEATOGLOBOSIN B] | – | 1 | 3.2 (≈ 6.05 µM) | 3.45 (≈ 6.53 µM) | – |
| C=C1[C@@H](C)[C@H]2[C@H](Cc3c[nH]c4ccccc34)NC(=O)[C@]23C(=O)/C=C/C(=O)[C@H](O)/C(C)=C/[C@@H](C)C/C=C/[C@H]3[C@@H]1O [CHEATOGLOBOSIN D] | – | 3 | 3.2 (≈ 6.05 µM) | 4.92 (≈ 9.31 µM) | – |
| CC1=C(C)[C@H]2[C@H](Cc3c[nH]c4ccccc34)NC(=O)[C@]23C(=O)CCC(=O)C(=O)/C(C)=C/[C@@H](C)C/C=C/[C@H]3[C@@H]1O [CHEATOGLOBOSIN G] | – | – | 3.2 (≈ 6.05 µM) | – | – |
| CC1=C[C@@H]2/C=C/C[C@H](C)/C=C(\C)[C@@H](O)C(=O)/C=C/C(=O)[C@]23C(=O)N[C@@H](Cc2c[nH]c4ccccc24)[C@@H]3[C@@H]1C [CHEATOGLOBOSIN J] | – | 2 | 3.2 (≈ 6.24 µM) | 2.47 (≈ 4.82 µM) | – |
| CC1=C[C@@H]2/C=C/C[C@H](C)/C=C(\C)[C@@H](O)C/C=C/C(=O)[C@]23C(=O)N[C@@H](Cc2c[nH]c4ccccc24)[C@@H]3[C@@H]1C [CHEATOGLOBOSIN T] | – | – | – | 1.58 (≈ 3.17 µM) | – |
| CC1=C[C@@H]2/C=C/C[C@H](C)/C=C(\C)CC(=O)/C=C/C(=O)[C@]23C(=O)N[C@@H](Cc2c[nH]c4ccccc24)[C@@H]3[C@@H]1C [PROCHEATOGLOBOSIN II] | – | – | – | 3.99 (≈ 8.03 µM) | 2 |
| CC1=C[C@@H]2/C=C/C[C@H](C)/C=C(\C)CC/C=C/C(=O)[C@]23C(=O)N[C@@H](Cc2c[nH]c4ccccc24)[C@@H]3[C@@H]1C [PROCHEATOGLOBOSIN I] | – | – | – | 3.99 (≈ 8.27 µM) | 2 |
